What all share (type): cell-based
For experiment [1], the system named is Enterococcus faecium ATCC 8043. The experiment in a line: In vitro antibacterial activity, agar dilution MIC. Here is the method: (§1) The antimicrobial spectra of a number of compounds of the invention were tested by the following method:
(§2) Twelve petri dishes containing successive aqueous dilutions of the test compound mixed with 10 ml of sterilized Brain Heart Infusion agar (Difco 0418-01-5) are prepared. Each plate is inoculated with 1:100 (or 1:10 for slow growing strains, primarily Micrococcus and Streptococcus) dilutions of up to 32 different microorganisms, using a Steers replicator block The inoculated plates are incubated at 35°-37° C. for 20-24 hours. In addition, a control plate, using BHI agar containing no test compound, is prepared and incubated at the beginning and end of each test.
(§3) An additional plate containing a compound having known susceptibility patterns for the organisms being tested and belonging to the same antibiotic class as the test compound is also prepared and incubated as a further control, as well as to provide test-to-test comparability. Erythromycin A was used for this purpose.
(§4) After incubation, each disk is read. The MIC is defined as the lowest concentration of drug yielding no growth, a slight haze, or sparsely isolated colonies on the inoculum spot as compared to the growth control.

For the next experiment, the system named is Escherichia coli DC-2. Briefly: In vitro antibacterial activity, agar dilution MIC. Here is the method: as §1, §2, §3, §4
The next experiment relates to Escherichia coli H560. The experiment in a line: In vitro antibacterial activity, agar dilution MIC. To be noted: E. coli H560, Brain Heart Infusion agar, 20-24 hours, read-out: MIC. Here is the method:
as §1, §2, §3, §4

In the next experiment the test system is Escherichia coli Juhl. The experiment in a line: In vitro antibacterial activity, agar dilution MIC. Here is the method: as §1, §2, §3, §4
In the next experiment the test system is Escherichia coli SS. Briefly: In vitro antibacterial activity, agar dilution MIC. The settings on record: read-out: MIC. Here is the method: as §1, §2, §3, §4
The test system of experiment [2] is Micrococcus luteus ATCC 4698. Briefly: In vitro antibacterial activity, agar dilution MIC. Here is the method:
as §1, §2, §3, §4

In experiment [3] the test system is Micrococcus luteus ATCC 9341. The experiment in a line: In vitro antibacterial activity, agar dilution MIC. Here is the method:
as §1, §2, §3, §4

A further experiment deals with Staphylococcus aureus 45. Briefly: In vitro antibacterial activity, agar dilution MIC. Here is the method: as §1, §2, §3, §4
The test system of experiment [4] is Staphylococcus aureus 642A. The experiment in a line: In vitro antibacterial activity, agar dilution MIC. The settings on record: S. aureus 642A, Brain Heart Infusion agar, 20-24 hours, read-out: MIC. Here is the method:
as §1, §2, §3, §4

Experiment [5] has as its system Staphylococcus aureus A5177. Briefly: In vitro antibacterial activity, agar dilution MIC. The settings on record: S. aureus A5177, Brain Heart Infusion agar, 20-24 hours, read-out: MIC. Here is the method: as §1, §2, §3, §4
For experiment [6], the system named is Staphylococcus aureus ATCC 6538P. Briefly: In vitro antibacterial activity, agar dilution MIC. To be noted: ATCC6538P, S. aureus ATCC 6538P, Brain Heart Infusion agar, 35-37° C., 20-24 hours, read-out: MIC. Here is the method:
as §1, §2, §3, §4

Experiment [7] relates to Staphylococcus aureus CMX 553. The experiment in a line: In vitro antibacterial activity, agar dilution MIC. The settings on record: CMX553, S. aureus CMX 553, Brain Heart Infusion agar, 20-24 hours, read-out: MIC. Here is the method:
as §1, §2, §3, §4

Experiment [8] concerns Staphylococcus aureus NCTC 10649. Briefly: In vitro antibacterial activity, agar dilution MIC. The settings on record: NCTC10649, S. aureus NCTC 10649, Brain Heart Infusion agar, 20-24 hours, read-out: MIC. Here is the method:
as §1, §2, §3, §4

The subject of experiment [9] is Staphylococcus epidermidis 3519. The experiment in a line: In vitro antibacterial activity, agar dilution MIC. The settings on record: S. epidermidis 3519, Brain Heart Infusion agar, 20-24 hours, read-out: MIC. Here is the method: as §1, §2, §3, §4
Experiment [10] concerns Streptococcus agalactiae CMX 508. The experiment in a line: In vitro antibacterial activity, agar dilution MIC. Here is the method:
as §1, §2, §3, §4

Experiment [11] concerns Streptococcus bovis A5169. Briefly: In vitro antibacterial activity, agar dilution MIC. To be noted: S. bovis A5169; Brain Heart Infusion agar, 20-24 hours; read-out: MIC. Here is the method: as §1, §2, §3, §4
The test system of experiment [12] is Streptococcus pyogenes 2548 INDUC. Briefly: In vitro antibacterial activity, agar dilution MIC. The settings on record: S. pyogenes 2548 INDUC, Brain Heart Infusion agar, 20-24 hours, read-out: MIC. Here is the method: as §1, §2, §3, §4
Experiment [13] deals with Streptococcus pyogenes 930 CONST. The experiment in a line: In vitro antibacterial activity, agar dilution MIC. The settings on record: 930CONST. Here is the method: as §1, §2, §3, §4
Experiment [14] concerns Streptococcus pyogenes EES61. Briefly: In vitro antibacterial activity, agar dilution MIC. The settings on record: S. pyogenes EES61, Brain Heart Infusion agar, 20-24 hours, read-out: MIC. Here is the method:
as §1, §2, §3, §4

Experiment [15] relates to Staphylococcus aureus 45 RAR 2. Briefly: microbe, parasite or virus in culture. To be noted: 45RAR2. Here is the method: as §1, §2, §3, §4
[16] abbreviates: ATCC8043, E. faecium ATCC 8043, Brain Heart Infusion agar, 20-24 hours, read-out: MIC.
Where [17] appears, read: DC2, E. coli DC-2, Brain Heart Infusion agar, 20-24 hours, read-out: MIC.
The mark [18] stands for this setting: E. coli Juhl, Brain Heart Infusion agar, 20-24 hours, read-out: MIC.
Where [19] appears, read: E. coli SS, Brain Heart Infusion agar, 20-24 hours.
The mark [20] stands for this setting: ATCC4698, M. luteus ATCC 4698, Brain Heart Infusion agar, 20-24 hours, read-out: MIC.
[21] abbreviates: S. aureus 45, Brain Heart Infusion agar, 20-24 hours, read-out: MIC.
Where [22] appears, read: ATCC9341, M. luteus ATCC 9341, Brain Heart Infusion agar, 20-24 hours, read-out: MIC.
[23] abbreviates: CMX508, S. agalactiae CMX 508, Brain Heart Infusion agar, 20-24 hours, read-out: MIC.

≈ marks a conversion by molar mass, not a printed value. Read-outs that look alike come from different tables or passages of the source.

Turning to `CC[C@H]1OC(=O)[C@H](C)[C@@H](O[C@H]2C[C@@](C)(OC)[C@@H](O)[C@H](C)O2)[C@H](C)[C@@H](O[C@@H]2O[C@H](C)C[C@H](N(C)C)[C@H]2O)[C@](C)(O)C[C@@H](C)[C@@H](N2CCN(C(=O)c3ccccc3)CC2)[C@H](C)[C@@H](O)[C@]1(C)O` [Example 17], the MIC was 0.39 µg/mL (≈ 0.429 µM) in [1] (setting [16]); over 100 µg/mL with Escherichia coli DC-2 (setting [17]); over 100 µg/mL with Escherichia coli H560; over 100 µg/mL in the experiment with Escherichia coli Juhl (setting [18]); 3.1 µg/mL (≈ 3.41 µM) with Escherichia coli SS (setting [19]); 0.78 µg/mL (≈ 0.859 µM) in [2] (setting [20]). The MIC in experiment [3] (ATCC9341, read-out: MIC) came out at 0.2 µg/mL (≈ 0.22 µM); in the experiment on Staphylococcus aureus 45 (setting [21]), 0.78 µg/mL (≈ 0.859 µM); in [4], 1.56 µg/mL (≈ 1.72 µM); in experiment [5], 12.5 µg/mL (≈ 13.8 µM); in experiment [6], 1.56 µg/mL (≈ 1.72 µM); in [7], 1.56 µg/mL (≈ 1.72 µM). Moreover, the MIC in [8] is 1.56 µg/mL (≈ 1.72 µM); in experiment [9], 1.56 µg/mL (≈ 1.72 µM); in experiment [10] (CMX508, read-out: MIC), 0.2 µg/mL (≈ 0.22 µM); in [11], 0.39 µg/mL (≈ 0.429 µM); in [12] it was 25 µg/mL (≈ 27.5 µM); in experiment [13], over 100 µg/mL. The MIC in experiment [14] came to 0.39 µg/mL (≈ 0.429 µM); in [15], 3.1 µg/mL (≈ 3.41 µM).
Regarding `CC[C@H]1OC(=O)[C@H](C)[C@@H](O[C@H]2C[C@@](C)(OC)[C@@H](O)[C@H](C)O2)[C@H](C)[C@@H](O[C@@H]2O[C@H](C)C[C@H](N(C)C)[C@H]2O)[C@](C)(O)C[C@@H](C)[C@@H](N2CCS(=O)(=O)CC2)[C@H](C)[C@@H](O)[C@]1(C)O` [Example 22], the MIC in experiment [1] (setting [16]) is 1.56 µg/mL (≈ 1.83 µM); in the experiment on Escherichia coli DC-2 (setting [17]), over 100 µg/mL; in the experiment on Escherichia coli H560 it was over 100 µg/mL; in the experiment with Escherichia coli Juhl (setting [18]) it was over 100 µg/mL; in the experiment with Escherichia coli SS (setting [19]), 1.56 µg/mL (≈ 1.83 µM); in [2] (setting [20]), 3.1 µg/mL (≈ 3.63 µM). For the same compound, the MIC is 0.39 µg/mL (≈ 0.457 µM) in [3] (setting [22]); 6.2 µg/mL (≈ 7.27 µM) in the experiment with Staphylococcus aureus 45 (setting [21]); 6.2 µg/mL (≈ 7.27 µM) in experiment [4]; over 100 µg/mL in experiment [5]; 3.1 µg/mL (≈ 3.63 µM) in experiment [6]; 3.1 µg/mL (≈ 3.63 µM) in experiment [7]. For the same compound, the MIC in experiment [8] was 3.1 µg/mL (≈ 3.63 µM); in experiment [9] it was 6.2 µg/mL (≈ 7.27 µM); in [10] (setting [23]) it was 0.39 µg/mL (≈ 0.457 µM); in experiment [11] it was 0.39 µg/mL (≈ 0.457 µM); in experiment [12], 100 µg/mL (≈ 117 µM); in experiment [13], over 100 µg/mL. The MIC in experiment [14] turned out to be 0.39 µg/mL (≈ 0.457 µM); in [15], 6.2 µg/mL (≈ 7.27 µM).
As for `CC[C@H]1OC(=O)[C@H](C)[C@@H](O[C@H]2C[C@@](C)(OC)[C@@H](N)[C@H](C)O2)[C@H](C)[C@@H](O[C@@H]2O[C@H](C)C[C@H](N(C)C)[C@H]2O)[C@](C)(O)C[C@@H](C)[C@@H](N2CCOCC2)[C@H](C)[C@@H](O)[C@]1(C)O` [Example 33], the MIC in experiment [1] (ATCC8043, read-out: MIC) stood at 0.2 µg/mL (≈ 0.249 µM); against Escherichia coli DC-2 (DC2) it was 6.2 µg/mL (≈ 7.71 µM); in the experiment on Escherichia coli H560, 3.1 µg/mL (≈ 3.86 µM); in the experiment with Escherichia coli Juhl, 12.5 µg/mL (≈ 15.5 µM); in the experiment with Escherichia coli SS, 0.2 µg/mL (≈ 0.249 µM); in experiment [2] (ATCC4698), 0.39 µg/mL (≈ 0.485 µM). The MIC is 0.05 µg/mL (≈ 0.0622 µM) in experiment [3] (setting [22]); 0.39 µg/mL (≈ 0.485 µM) against Staphylococcus aureus 45 (45); 0.78 µg/mL (≈ 0.97 µM) in experiment [4]; 6.2 µg/mL (≈ 7.71 µM) in [5]; 0.78 µg/mL (≈ 0.97 µM) in [6]; 0.78 µg/mL (≈ 0.97 µM) in [7]. For the same compound, the MIC in [8] was 0.78 µg/mL (≈ 0.97 µM); in [9], 0.78 µg/mL (≈ 0.97 µM); in experiment [10] (setting [23]), 0.1 µg/mL (≈ 0.124 µM); in experiment [11], 0.05 µg/mL (≈ 0.0622 µM); in experiment [12] it was 50 µg/mL (≈ 62.2 µM); in experiment [13], over 100 µg/mL. Besides, the MIC in experiment [14] was 0.1 µg/mL (≈ 0.124 µM); in [15] it was 0.78 µg/mL (≈ 0.97 µM).

The values above are taken from patent US5075289A, “9-R-azacyclic erythromycin antibiotics” (priority 1988, dated 1991).
